Among the data in patent US9266878B2, “Phosphatidylinositol 3-kinase inhibitors” (Gilead Calistoga LLC, priority 2012, dated 2016) are IC50 values, retold here.

A word on the IC50: it is the concentration that inhibits the measured activity by half.

Assay in all cases: Enzymatic activity of PI3K isoforms, TR-FRET assay (PIP3 formation)
Assay type in all cases: biochemical
In general terms: TR-FRET usually uses a lanthanide donor and a delayed reading to cut background.

One experiment deals with PI3Kβ (Homo sapiens (Human), UniProt P42338). As to the method:
(§1) Enzymatic activity of the class I PI3K isoforms was measured using a time-resolved fluorescence resonance energy transfer (TR-FRET) assay that monitors formation of the product 3,4,5-inositol triphosphate molecule (PIP3), as it competes with fluorescently labeled PIP3 for binding to the GRP-1 pleckstrin homology domain protein. An increase in […] product results in a decrease in TR-FRET signal as the labeled fluorophore is displaced from the GRP-1 protein binding site.
(§2) Class I PI3K isoforms were expressed and purified as heterodimeric recombinant proteins. All assay reagents and buffers for the TR-FRET assay were purchased from Millipore.
(§3) IC50 are reported in units of nM.

A further experiment concerns the target PI3Kγ (Homo sapiens (Human), UniProt P48736). Conditions: bound given in nM. Here is the method:
as §1, §2, §3

For a further experiment, the target named is PI3Kδ (Homo sapiens (Human), UniProt O00329). The following applies: bound given in nM. In short, it runs like this: (§4)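 After 30 min at 25° C, reactions were quenched with 10 mM EDTA plus 10 nM labeled-PIP3 and 35 nM Europium-GRP-1, and TR-FRET was read (Ex 340, Em 615/665 nm). Enzymes were purified recombinant heterodimers; product PIP3 competes off the labeled tracer. Values given as IC50, nM.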

Another experiment has as its target PI3Kα (Homo sapiens (Human), UniProt P42336). Conditions: bound given in uM. An outline of the steps: as §4

Where only a bound is given, the exact number is not on record here.

PI3Kα, sequence (P42336 whole entry): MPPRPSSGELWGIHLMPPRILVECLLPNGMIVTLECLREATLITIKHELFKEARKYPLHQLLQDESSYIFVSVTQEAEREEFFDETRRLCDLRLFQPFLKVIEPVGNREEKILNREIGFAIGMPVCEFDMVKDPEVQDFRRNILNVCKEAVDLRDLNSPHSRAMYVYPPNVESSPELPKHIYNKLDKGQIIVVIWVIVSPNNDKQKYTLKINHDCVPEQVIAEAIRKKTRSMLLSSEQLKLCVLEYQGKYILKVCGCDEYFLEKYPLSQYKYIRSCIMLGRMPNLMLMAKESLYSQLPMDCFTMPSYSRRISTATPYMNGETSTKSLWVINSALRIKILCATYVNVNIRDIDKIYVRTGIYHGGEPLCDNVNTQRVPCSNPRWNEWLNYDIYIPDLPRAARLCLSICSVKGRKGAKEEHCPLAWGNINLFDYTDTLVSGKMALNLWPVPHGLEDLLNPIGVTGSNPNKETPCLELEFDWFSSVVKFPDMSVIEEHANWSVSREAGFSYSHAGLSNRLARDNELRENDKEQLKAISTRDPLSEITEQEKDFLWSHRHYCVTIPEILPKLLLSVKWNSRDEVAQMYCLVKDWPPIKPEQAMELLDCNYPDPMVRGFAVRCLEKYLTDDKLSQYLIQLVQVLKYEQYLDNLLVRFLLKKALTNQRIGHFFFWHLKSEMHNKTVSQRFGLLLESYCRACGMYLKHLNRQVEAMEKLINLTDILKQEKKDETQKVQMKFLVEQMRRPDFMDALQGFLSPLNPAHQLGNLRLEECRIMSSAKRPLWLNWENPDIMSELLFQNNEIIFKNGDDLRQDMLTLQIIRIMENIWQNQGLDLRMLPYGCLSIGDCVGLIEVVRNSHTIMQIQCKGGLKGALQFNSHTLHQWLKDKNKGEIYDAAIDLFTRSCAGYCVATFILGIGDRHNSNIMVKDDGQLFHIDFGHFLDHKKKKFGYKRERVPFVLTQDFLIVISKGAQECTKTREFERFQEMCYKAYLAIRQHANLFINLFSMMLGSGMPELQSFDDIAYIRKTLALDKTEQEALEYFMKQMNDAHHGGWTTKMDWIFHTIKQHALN
PI3Kα, sequence (P27986 whole entry partner): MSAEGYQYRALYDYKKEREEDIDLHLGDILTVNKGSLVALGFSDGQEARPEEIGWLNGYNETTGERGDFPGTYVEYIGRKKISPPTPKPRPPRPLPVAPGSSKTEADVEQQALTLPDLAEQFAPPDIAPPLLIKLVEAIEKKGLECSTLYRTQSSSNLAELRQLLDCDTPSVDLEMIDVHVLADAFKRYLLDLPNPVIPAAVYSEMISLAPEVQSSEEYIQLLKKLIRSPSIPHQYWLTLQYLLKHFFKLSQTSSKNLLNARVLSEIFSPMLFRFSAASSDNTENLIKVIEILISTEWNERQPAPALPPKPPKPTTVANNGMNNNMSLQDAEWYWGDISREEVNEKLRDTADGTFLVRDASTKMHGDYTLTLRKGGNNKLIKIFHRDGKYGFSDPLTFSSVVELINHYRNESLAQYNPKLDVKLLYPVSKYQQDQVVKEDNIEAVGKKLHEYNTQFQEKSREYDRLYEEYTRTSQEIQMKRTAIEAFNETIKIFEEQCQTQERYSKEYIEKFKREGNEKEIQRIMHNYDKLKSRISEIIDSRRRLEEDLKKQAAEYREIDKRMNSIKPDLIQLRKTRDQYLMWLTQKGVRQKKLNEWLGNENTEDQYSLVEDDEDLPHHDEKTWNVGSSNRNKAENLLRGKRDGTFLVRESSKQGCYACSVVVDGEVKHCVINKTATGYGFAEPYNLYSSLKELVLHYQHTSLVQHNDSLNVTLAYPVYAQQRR
PI3Kδ, sequence (O00329 whole entry): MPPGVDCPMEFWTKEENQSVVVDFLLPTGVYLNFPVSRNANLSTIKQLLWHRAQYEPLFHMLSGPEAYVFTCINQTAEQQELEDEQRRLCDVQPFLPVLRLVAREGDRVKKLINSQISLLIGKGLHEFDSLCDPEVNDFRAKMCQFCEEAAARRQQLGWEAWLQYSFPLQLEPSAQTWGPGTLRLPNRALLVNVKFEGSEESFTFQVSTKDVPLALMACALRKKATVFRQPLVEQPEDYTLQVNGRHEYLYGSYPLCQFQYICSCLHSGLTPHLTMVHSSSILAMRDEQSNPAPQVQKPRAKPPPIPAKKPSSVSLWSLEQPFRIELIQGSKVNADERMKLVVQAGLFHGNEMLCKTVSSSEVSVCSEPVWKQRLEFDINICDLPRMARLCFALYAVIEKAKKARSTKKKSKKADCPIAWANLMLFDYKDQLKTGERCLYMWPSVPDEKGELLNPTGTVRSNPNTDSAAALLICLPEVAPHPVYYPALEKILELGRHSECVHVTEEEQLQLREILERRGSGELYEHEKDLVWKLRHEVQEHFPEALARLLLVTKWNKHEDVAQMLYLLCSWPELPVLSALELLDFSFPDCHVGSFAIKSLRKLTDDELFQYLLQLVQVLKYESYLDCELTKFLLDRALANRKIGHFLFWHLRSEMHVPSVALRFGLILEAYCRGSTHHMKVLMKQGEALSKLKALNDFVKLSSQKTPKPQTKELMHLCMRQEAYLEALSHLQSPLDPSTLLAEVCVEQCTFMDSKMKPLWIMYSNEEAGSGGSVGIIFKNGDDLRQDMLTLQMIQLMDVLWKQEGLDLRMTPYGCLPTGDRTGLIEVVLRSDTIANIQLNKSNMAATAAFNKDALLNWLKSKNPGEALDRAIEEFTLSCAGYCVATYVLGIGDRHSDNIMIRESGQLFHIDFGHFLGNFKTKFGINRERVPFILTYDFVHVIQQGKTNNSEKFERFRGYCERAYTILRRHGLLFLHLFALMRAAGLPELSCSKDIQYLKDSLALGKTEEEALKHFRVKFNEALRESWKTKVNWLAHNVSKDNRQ
PI3Kδ, sequence (P27986 whole entry partner): as the sequence (P27986 whole entry partner) above
PI3Kβ, sequence (P42338 whole entry, the tested form may be a part, canonical isoform): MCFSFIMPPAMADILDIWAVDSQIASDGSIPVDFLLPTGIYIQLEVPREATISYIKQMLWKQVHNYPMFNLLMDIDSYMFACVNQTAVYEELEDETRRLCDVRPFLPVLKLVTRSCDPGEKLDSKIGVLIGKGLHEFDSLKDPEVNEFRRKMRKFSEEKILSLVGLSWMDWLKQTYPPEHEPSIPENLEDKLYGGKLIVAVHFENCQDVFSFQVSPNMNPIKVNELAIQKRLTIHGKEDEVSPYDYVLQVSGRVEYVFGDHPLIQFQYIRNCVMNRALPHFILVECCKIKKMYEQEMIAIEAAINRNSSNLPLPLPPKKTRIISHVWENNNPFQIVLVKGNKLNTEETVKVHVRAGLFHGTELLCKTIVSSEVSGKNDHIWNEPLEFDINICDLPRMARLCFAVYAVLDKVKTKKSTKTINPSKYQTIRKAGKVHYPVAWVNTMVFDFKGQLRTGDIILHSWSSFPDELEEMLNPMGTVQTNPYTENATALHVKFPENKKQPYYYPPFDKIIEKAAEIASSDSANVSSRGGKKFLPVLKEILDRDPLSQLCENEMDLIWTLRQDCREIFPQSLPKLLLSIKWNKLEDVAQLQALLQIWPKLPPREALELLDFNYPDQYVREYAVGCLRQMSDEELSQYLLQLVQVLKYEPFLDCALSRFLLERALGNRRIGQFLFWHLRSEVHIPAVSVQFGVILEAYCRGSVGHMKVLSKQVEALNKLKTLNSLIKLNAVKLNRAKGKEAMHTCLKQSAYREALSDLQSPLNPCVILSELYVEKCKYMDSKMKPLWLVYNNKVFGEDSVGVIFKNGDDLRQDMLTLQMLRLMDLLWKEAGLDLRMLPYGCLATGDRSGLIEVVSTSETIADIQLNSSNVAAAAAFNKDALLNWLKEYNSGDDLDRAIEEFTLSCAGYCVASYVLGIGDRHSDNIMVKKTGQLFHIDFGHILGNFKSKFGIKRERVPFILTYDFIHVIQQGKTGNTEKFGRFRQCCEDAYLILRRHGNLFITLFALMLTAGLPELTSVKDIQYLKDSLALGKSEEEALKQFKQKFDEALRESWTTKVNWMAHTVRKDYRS
PI3Kβ, sequence (P27986 whole entry partner, the tested form may be a part, canonical isoform): as the sequence (P27986 whole entry partner) above

For the compound `C[C@H](Nc1ncnc(N)c1C#Cc1cccc(CO)n1)c1nc2cccc(Cl)c2c(=O)n1-c1ccccc1` [Compound 155a, (S)-2-(1-((6-amino-5-((6-(hydroxymethyl)pyridin-2-yl)ethynyl)pyrimidin-4-yl)amino)ethyl)-5-chloro-3-phenylquinazolin-4(3H)-one], the IC50 is greater than 1 nM against PI3Kβ (bound given in nM), less than 100 nM on PI3Kγ and less than 100 nM at PI3Kδ.

`CC(O)c1cccc(C#Cc2c(N)ncnc2N[C@@H](C)c2nc3cccc(Cl)c3c(=O)n2-c2ccccc2)n1` (stereo partly drawn) [Compound 157a, 2-((1S)-1-((6-amino-5-((6-(1-hydroxyethyl)pyridin-2-yl)ethynyl)pyrimidin-4-yl)amino)ethyl)-5-chloro-3-phenylquinazolin-4(3H)-one]: the IC50 was less than 100 nM against PI3Kβ (bound given in nM), greater than 1 µM against PI3Kα and less than 100 nM at PI3Kδ.

For `C[C@H](Nc1nc(N)nc(N)c1C#Cc1ccc(F)cn1)c1nc2cccc(Cl)c2c(=O)n1-c1ccccc1` [Compound 83a, (S)-5-chloro-2-(1-((2,6-diamino-5-((5-fluoropyridin-2-yl)ethynyl)pyrimidin-4-yl)amino)ethyl)-3-phenylquinazolin-4(3H)-one], the IC50 against PI3Kβ (bound given in uM) is greater than 1000 nM; at PI3Kα, greater than 1 µM; against PI3Kδ, less than 100 nM.

As to `C[C@H](Nc1ncnc(N)c1C#Cc1cnccn1)c1nc2cccc(Cl)c2c(=O)n1-c1ccccc1` [Compound 16a, (S)-2-(1-(6-amino-5-(pyrazin-2-ylethynyl)pyrimidin-4-ylamino)ethyl)-5-chloro-3-phenylquinazolin-4(3H)-one], the IC50 at PI3Kβ (bound given in nM) is less than 100 nM; against PI3Kα, greater than 1 µM; on PI3Kδ, less than 100 nM.

Consider `COC(=O)c1ccc(C#Cc2c(N)ncnc2N[C@@H](C)c2nc3cccc(Cl)c3c(=O)n2-c2ccccc2)nc1` [Compound 3a, (S)-methyl 6-((4-amino-6-(1-(5-chloro-4-oxo-3-phenyl-3,4-dihydroquinazolin-2-yl)ethylamino)pyrimidin-5-yl)ethynyl)nicotinate], for which the IC50 against PI3Kβ (bound given in uM) was greater than 1000 nM; on PI3Kα, greater than 1 µM; on PI3Kδ, less than 100 nM.

As to `C[C@H](Nc1ncnc(N)c1C#Cc1ncccc1C(F)(F)F)c1nc2cccc(Cl)c2c(=O)n1-c1ccccc1` [Compound 142a, (S)-2-(1-((6-amino-5-((3-(trifluoromethyl)pyridin-2-yl)ethynyl)pyrimidin-4-yl)amino)ethyl)-5-chloro-3-phenylquinazolin-4(3H)-one], the half-maximal inhibitory concentration (IC50) at PI3Kβ (bound given in nM) was less than 100 nM; on PI3Kα, greater than 1 µM; against PI3Kδ it was less than 100 nM.

With `C[C@H](Nc1ncnc(N)c1C#Cc1cncnc1)c1nc2cccc(Cl)c2c(=O)n1-c1ccccc1` [Compound 42a, (S)-2-(1-(6-amino-5-(pyrimidin-5-ylethynyl)pyrimidin-4-ylamino)ethyl)-5-chloro-3-phenylquinazolin-4(3H)-one], the IC50 is greater than 1000 nM against PI3Kβ (bound given in uM), greater than 1 µM at PI3Kα and less than 100 nM on PI3Kδ.

For `C[C@H](Nc1nc(N)nc(N)c1C#Cc1ccc(F)cn1)c1nc2cccc(Cl)c2c(=O)n1-c1cc(F)cc(F)c1` [Compound 78a, (S)-5-chloro-2-(1-((2,6-diamino-5-((5-fluoropyridin-2-yl)ethynyl)pyrimidin-4-yl)amino)ethyl)-3-(3,5-difluorophenyl)quinazolin-4(3H)-one], the IC50 at PI3Kβ (bound given in uM) is greater than 1000 nM; on PI3Kα it was greater than 1 µM; against PI3Kδ it was less than 100 nM.

`Cc1cccc(C#Cc2c(N)ncnc2N[C@@H](C)c2nc3cccc(Cl)c3c(=O)n2-c2ccccc2)n1` [Compound 141a, (S)-2-(1-((6-amino-5-((6-methylpyridin-2-yl)ethynyl)pyrimidin-4-yl)amino)ethyl)-5-chloro-3-phenylquinazolin-4(3H)-one]: the IC50 against PI3Kβ (bound given in nM) is less than 100 nM; against PI3Kα it was greater than 1 µM; against PI3Kδ, less than 100 nM.

Consider `C[C@H](Nc1ncnc(N)c1C#Cc1ccc(F)cn1)c1nc2cccc(C(F)F)c2c(=O)n1-c1ccccc1` [Compound 67a, (S)-2-(1-((6-amino-5-((5-fluoropyridin-2-yl)ethynyl)pyrimidin-4-yl)amino)ethyl)-5-(difluoromethyl)-3-phenylquinazolin-4(3H)-one], for which the IC50 against PI3Kβ (bound given in uM) was greater than 1000 nM; on PI3Kα it was greater than 1 µM; against PI3Kδ, less than 100 nM.

`C[C@H](Nc1ncnc(N)c1C#Cc1ccc(OC(F)(F)F)cc1)c1nc2cccc(Cl)c2c(=O)n1-c1ccccc1` [Compound 27a, (S)-2-(1-(6-amino-5-((4-(trifluoromethoxy)phenyl)ethynyl)pyrimidin-4-ylamino)ethyl)-5-chloro-3-phenylquinazolin-4(3H)-one]: the IC50 was greater than 1000 nM against PI3Kβ (bound given in uM), greater than 1 µM against PI3Kα and less than 100 nM on PI3Kδ.

`C[C@H](Nc1ncnc(N)c1C#Cc1cccc(N)n1)c1nc2cccc(Cl)c2c(=O)n1-c1cc(F)cc(F)c1` [Compound 15a, (S)-2-(1-(6-amino-5-((6-aminopyridin-2-yl)ethynyl)pyrimidin-4-ylamino)ethyl)-5-chloro-3-(3,5-difluorophenyl)quinazolin-4(3H)-one]: the IC50 against PI3Kβ (bound given in nM) and on PI3Kδ was less than 100 nM in each case.

Turning to `Cc1cccc2nc([C@H](C)Nc3ncnc(N)c3C#Cc3ccccn3)n(-c3ccccc3)c(=O)c12` [Compound 30a, (S)-2-(1-(6-amino-5-(pyridin-2-ylethynyl)pyrimidin-4-ylamino)ethyl)-5-methyl-3-phenylquinazolin-4(3H)-one], the IC50 against PI3Kβ (bound given in nM) and on PI3Kδ was less than 100 nM each time.

Take `Cc1cccnc1C#Cc1c(N)ncnc1N[C@@H](C)c1nc2cccc(Cl)c2c(=O)n1-c1ccccc1` [Compound 143a, (S)-2-(1-((6-amino-5-((3-methylpyridin-2-yl)ethynyl)pyrimidin-4-yl)amino)ethyl)-5-chloro-3-phenylquinazolin-4(3H)-one]: the IC50 was less than 100 nM against PI3Kβ (bound given in nM), greater than 1 µM against PI3Kα and less than 100 nM on PI3Kδ.

With `C[C@H](Nc1ncnc(N)c1C#Cc1ccc(C(F)(F)F)cn1)c1nc2cccc(Cl)c2c(=O)n1-c1cc(F)cc(F)c1` [Compound 134a, (S)-2-(1-((6-amino-5-((5-(trifluoromethyl)pyridin-2-yl)ethynyl)pyrimidin-4-yl)amino)ethyl)-5-chloro-3-(3,5-difluorophenyl)quinazolin-4(3H)-one], the IC50 against PI3Kβ (bound given in uM) is greater than 1000 nM; against PI3Kα, greater than 1 µM.

For `Cc1ccnc(C#Cc2c(N)ncnc2N[C@@H](C)c2nc3cccc(Cl)c3c(=O)n2-c2ccccc2)c1` [Compound 147a, (S)-2-(1-((6-amino-5-((4-methylpyridin-2-yl)ethynyl)pyrimidin-4-yl)amino)ethyl)-5-chloro-3-phenylquinazolin-4(3H)-one], the IC50 on PI3Kβ (bound given in nM) and on PI3Kδ was less than 100 nM in each case.

Regarding `C[C@H](Nc1ncnc(N)c1C#Cc1ccccc1)c1nc2cccc(S(C)(=O)=O)c2c(=O)n1-c1ccccc1` [Compound 112a, (S)-2-(1-((6-amino-5-(phenylethynyl)pyrimidin-4-yl)amino)ethyl)-5-(methylsulfonyl)-3-phenylquinazolin-4(3H)-one], the values for the IC50 at PI3Kβ (bound given in uM) and at PI3Kδ were greater than 1000 nM and less than 100 nM, respectively.

For `Cc1cccc2nc([C@H](C)Nc3ncnc(N)c3C#Cc3cnccn3)n(-c3ccccc3)c(=O)c12` [Compound 98a, (S)-2-(1-((6-amino-5-(pyrazin-2-ylethynyl)pyrimidin-4-yl)amino)ethyl)-5-methyl-3-phenylquinazolin-4(3H)-one], the IC50 against PI3Kβ (bound given in nM) and at PI3Kδ was less than 100 nM each time.

On to `C[C@H](Nc1ncnc(N)c1C#Cc1cccnc1)c1nc2cccc(Cl)c2c(=O)n1-c1cc(F)cc(F)c1` [Compound 43a, (S)-2-(1-(6-amino-5-(pyridin-3-ylethynyl)pyrimidin-4-ylamino)ethyl)-5-chloro-3-(3,5-difluorophenyl)quinazolin-4(3H)-one], for which the 50% inhibitory concentration (IC50) against PI3Kβ (bound given in uM) was greater than 1000 nM; on PI3Kα, greater than 1 µM; against PI3Kδ, less than 100 nM.

As for `Cc1ccc(C#Cc2c(N)ncnc2N[C@@H](C)c2nc3cccc(Cl)c3c(=O)n2-c2cc(F)cc(F)c2)nc1` [Compound 164a, (S)-2-(1-((6-amino-5-((5-methylpyridin-2-yl)ethynyl)pyrimidin-4-yl)amino)ethyl)-5-chloro-3-(3,5-difluorophenyl)quinazolin-4(3H)-one], the concentration for half-maximal inhibition (IC50) against PI3Kβ (bound given in uM) was greater than 1000 nM; against PI3Kα, greater than 1 µM; at PI3Kδ, less than 100 nM.

With `C[C@H](Nc1ncnc(N)c1C#Cc1ccc(C(N)=O)cn1)c1nc2cccc(Cl)c2c(=O)n1-c1cc(F)cc(F)c1` [Compound 136a, (S)-6-((4-amino-6-((1-(5-chloro-3-(3,5-difluorophenyl)-4-oxo-3,4-dihydroquinazolin-2-yl)ethyl)amino)pyrimidin-5-yl)ethynyl)nicotinamide], the IC50 is greater than 1000 nM at PI3Kβ (bound given in uM), greater than 1 µM against PI3Kα and less than 100 nM on PI3Kδ.

As to `C[C@H](Nc1ncnc(N)c1C#Cc1ccc(F)cn1)c1nc2c(F)ccc(Cl)c2c(=O)n1-c1cc(F)cc(F)c1` [Compound 84a, (S)-2-(1-((6-amino-5-((5-fluoropyridin-2-yl)ethynyl)pyrimidin-4-yl)amino)ethyl)-5-chloro-3-(3,5-difluorophenyl)-8-fluoroquinazolin-4(3H)-one], the IC50 against PI3Kβ (bound given in uM) was greater than 1000 nM; against PI3Kα it was greater than 1 µM; at PI3Kδ, less than 100 nM.
